What was measured:
S. typhimurium TA100 = test: Ames microplate test, TA100; assay type: cell-based, Salmonella typhimurium
Method: The study used the Ames microplate test (Ames MPF™ Penta 2 by Xenometrix, Allschwil, Switzerland). Growth medium, exposure medium, indicator medium, positive controls, hepatic microsomal fraction, NADP, glucose-6-phosphate, Salmonella typhimurium and Escherichia coli strains were components of the purchased experimental kit. Bacteria were grown overnight in growth medium. They were then exposed to the test compound at the appropriate concentration in exposure medium without or with the rat microsomal fraction S9 in 24-well plates for 90 min at 37° C. with shaking. Then, indicator medium was added to the wells and pipetted into 384-well plates, which were incubated for 48 hours at 37° C. without shaking. Results were assessed by counting the wells in which the medium turned yellow for each experimental condition.

primary melanocytes = test: Safety, LDH test in primary melanocytes; assay type: cell-based; details: 48 hours, vs Triton X-100
Method: (§1) In order to test the safety of the compounds, both normal human cells were used: keratinocytes (HaCaT), fibroblasts (BJ), primary melanocytes that occur in the skin, as well as human cancer cells: the hepatocarcinoma line HepG2 and the neuroblastoma line SH-SY5Y, which are considered a model for the assessment of hepatocytotoxicity and neurocytotoxicity. The concentrations of the tested compounds in the range of […] were used in the studies. The cell lines used in the research were purchased from the American Type Culture Collection (ATCC) and were cultured in media recommended by the manufacturer with the addition of FBS and antibiotics in an incubator ensuring appropriate culture conditions, i.e. humidity, temperature and CO2 concentration. Cells were seeded into multiwell plates and incubated with the test compounds for 48 hours. After this time, MTT and LDH tests were performed to assess cell viability. The MTT test is based on the ability to transform the substrate: [3-(4,5-dimethyl-2-thiazolyl)-2,5-diphenyl-2H-tetrazolium bromide into a colored product only by living cells. The absorbance at 570 nm, which corresponds to the absorption maximum for the product, is directly proportional to cell viability. The LDH test is based on testing the activity of the enzyme lactate dehydrogenase in the culture medium, which is released from cells as a result of damage to the cell membrane, e.g. as a result of cell death. Triton X-100 was used as a positive control in the test. The determination is colorimetric, the substrate is transformed by the released enzyme into a colored product, an increase in absorbance indicates a larger amount of the released enzyme, and thus confirms greater damage to cell membranes. Tables 7 and 8 present the results obtained, which correspond to the viability of cells incubated with the compounds in relation to the viability of cells constituting a control sample, i.e. incubated with the solvent (DMSO) at the same concentration as in the case of the groups tested in the MTT test or in relation to the results obtained for the Triton X-100 positive control in the LDH test. They indicate that the compounds are safe at the concentrations tested.

neuroblastoma SH-SY5Y = test: Safety, LDH test in SH-SY5Y; assay type: cell-based; details: 48 hours, vs Triton X-100
Method: as §1

S. typhimurium TA1537 = test: Ames microplate test, TA1537; assay type: cell-based, Salmonella typhimurium
Method: (§2) Bacteria were grown overnight in growth medium.

fibroblasts (BJ) = test: Safety, MTT test in fibroblasts; assay type: cell-based; details: 48 hours
Method: as §1

keratinocytes (HaCaT) [1] = test: Safety, MTT test in keratinocytes; assay type: cell-based; details: 48 hours
Method: as §1

hepatocarcinoma HepG2 = test: Safety, MTT test in HepG2; assay type: cell-based; details: 48 hours
Method: as §1

E. coli WP2 = test: Ames microplate test, E. coli WP2;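 also: bacteria exposed to compound for 90 min at 37 °C in 24-well plates, then transferred with indicator medium to 384-well plates and incubated 48 h before yellow well counting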
CHO-K1 cells = test: Cytotoxicity (MTT) in CHO-K1 cells before the micronucleus test; assay type: cell-based, Chinese hamster; details: 24 hours
Method: The assay was performed using a Chinese hamster ovary cell line (CHO-K1) purchased from the American Type Culture Collection (ATCC). The cells were cultured in F-12K medium with the addition of 10% fetal bovine serum (FBS) and antibiotics (streptomycin/penicillin) in an incubator at 37° C. and 5% CO2 concentration). Before the actual micronucleus test, a cytotoxicity assessment was performed to ensure that the actual test was performed only at safe concentrations. For this purpose, cells were transferred to 96-well plates and incubated with the tested compounds for 24 hours. After this time, the MTT test was performed and cell viability was assessed in comparison to the control group (cells cultured with DMSO at the same concentration as in the case of the tested samples).

keratinocytes (HaCaT) [2] = test: Safety, LDH test in keratinocytes; assay type: cell-based; details: 48 hours, vs Triton X-100
Method: as §1

S. typhimurium TA98 = test: Ames microplate test, TA98; assay type: cell-based, Salmonella typhimurium
Method: as §2

## O=C(/C=C/c1ccc(Cl)cc1)NCCCCCO [Compound A-111, (2E)-3-(4-chlorophenyl)-N-(5-hydroxypentyl)prop-2-enamide]
S. typhimurium TA100; 0.5 mM, + S9
  Increase in the number of yellow wells compared to the reference level, TA100: 0.97
S. typhimurium TA100; 0.5 mM, without S9
  Increase in the number of yellow wells compared to the reference level, TA100: 0.74
S. typhimurium TA100; 1.0 mM, + S9
  Increase in the number of yellow wells compared to the reference level, TA100: 0.47
S. typhimurium TA100; 1.0 mM, without S9
  Increase in the number of yellow wells compared to the reference level, TA100: 0.39
S. typhimurium TA100; 2.0 mM, + S9
  Increase in the number of yellow wells compared to the reference level, TA100: 0.67
S. typhimurium TA100; 2.0 mM, without S9
  Increase in the number of yellow wells compared to the reference level, TA100: 0.42
Primary melanocytes; 100 μM
  LDH, Primary melanocytes: 3.31 percentage of positive control
Primary melanocytes; 150 μM
  LDH, Primary melanocytes: 4.95 percentage of positive control
Primary melanocytes; 200 μM
  LDH, Primary melanocytes: 13.38 percentage of positive control
Primary melanocytes; 250 μM
  LDH, Primary melanocytes: 18.41 percentage of positive control
Neuroblastoma SH-SY5Y; 100 μM
  LDH, Neuroblastoma SH-SY5Y: 4.90 percentage of positive control
Neuroblastoma SH-SY5Y; 150 μM
  LDH, Neuroblastoma SH-SY5Y: 4.61 percentage of positive control
Neuroblastoma SH-SY5Y; 200 μM
  LDH, Neuroblastoma SH-SY5Y: 5.98 percentage of positive control
Neuroblastoma SH-SY5Y; 250 μM
  LDH, Neuroblastoma SH-SY5Y: 6.77 percentage of positive control
S. typhimurium TA1537; 0.5 mM, + S9
  Increase in the number of yellow wells compared to the reference level, TA1537: 0.27
S. typhimurium TA1537; 0.5 mM, without S9
  Increase in the number of yellow wells compared to the reference level, TA1537: 0.80
S. typhimurium TA1537; 1.0 mM, + S9
  Increase in the number of yellow wells compared to the reference level, TA1537: 0.45
S. typhimurium TA1537; 1.0 mM, without S9
  Increase in the number of yellow wells compared to the reference level, TA1537: 0.54
S. typhimurium TA1537; 2.0 mM, + S9
  Increase in the number of yellow wells compared to the reference level, TA1537: 0.27
S. typhimurium TA1537; 2.0 mM, without S9
  Increase in the number of yellow wells compared to the reference level, TA1537: 0.54
Fibroblasts (BJ); 100 μM
  MTT, Fibroblasts (BJ): 99.88 ± 5.25 % of solvent control
Fibroblasts (BJ); 150 μM
  MTT, Fibroblasts (BJ): 100.94 ± 3.37 % of solvent control
Fibroblasts (BJ); 200 μM
  MTT, Fibroblasts (BJ): 98.94 ± 4.04 % of solvent control
Fibroblasts (BJ); 250 μM
  MTT, Fibroblasts (BJ): 94.51 ± 5.03 % of solvent control
Keratinocytes (HaCaT) [1]; 100 μM
  MTT, Keratinocytes (HaCaT): 101.68 ± 3.45 % of solvent control
Keratinocytes (HaCaT) [1]; 150 μM
  MTT, Keratinocytes (HaCaT): 101.56 ± 1.94 % of solvent control
Keratinocytes (HaCaT) [1]; 200 μM
  MTT, Keratinocytes (HaCaT): 101.04 ± 2.77 % of solvent control
Keratinocytes (HaCaT) [1]; 250 μM
  MTT, Keratinocytes (HaCaT): 91.57 ± 2.10 % of solvent control
Hepatocarcinoma HepG2; 100 μM
  MTT, Hepatocarcinoma HepG2: 101.10 ± 6.01 % of solvent control
Hepatocarcinoma HepG2; 150 μM
  MTT, Hepatocarcinoma HepG2: 97.87 ± 3.27 % of solvent control
Hepatocarcinoma HepG2; 200 μM
  MTT, Hepatocarcinoma HepG2: 98.19 ± 3.27 % of solvent control
Hepatocarcinoma HepG2; 250 μM
  MTT, Hepatocarcinoma HepG2: 96.27 ± 2.57 % of solvent control
E. coli WP2; 0.5 mM, + S9
  Increase in the number of yellow wells compared to the reference level, E. coli WP2: 0.62
E. coli WP2; 0.5 mM, without S9
  Increase in the number of yellow wells compared to the reference level, E. coli WP2: 1.46
E. coli WP2; 1.0 mM, + S9
  Increase in the number of yellow wells compared to the reference level, E. coli WP2: 0.71
E. coli WP2; 1.0 mM, without S9
  Increase in the number of yellow wells compared to the reference level, E. coli WP2: 1.10
E. coli WP2; 2.0 mM, + S9
  Increase in the number of yellow wells compared to the reference level, E. coli WP2: 0.98
E. coli WP2; 2.0 mM, without S9
  Increase in the number of yellow wells compared to the reference level, E. coli WP2: 1.10
CHO-K1 cells; 100 μM
  % Viability [mean], CHO-K1: 86.1%
CHO-K1 cells; 150 μM
  % Viability [mean], CHO-K1: 95.6%
CHO-K1 cells; 200 μM
  % Viability [mean], CHO-K1: 98.6%
Keratinocytes (HaCaT) [2]; 100 μM
  LDH, Keratinocytes (HaCaT): 4.69 percentage of positive control
Keratinocytes (HaCaT) [2]; 150 μM
  LDH, Keratinocytes (HaCaT): 4.43 percentage of positive control
Keratinocytes (HaCaT) [2]; 200 μM
  LDH, Keratinocytes (HaCaT): 6.49 percentage of positive control
Keratinocytes (HaCaT) [2]; 250 μM
  LDH, Keratinocytes (HaCaT): 13.55 percentage of positive control
S. typhimurium TA98; 0.5 mM, + S9
  Increase in the number of yellow wells compared to the reference level, TA98: 1.50
S. typhimurium TA98; 0.5 mM, without S9
  Increase in the number of yellow wells compared to the reference level, TA98: 0.7
S. typhimurium TA98; 1.0 mM, + S9
  Increase in the number of yellow wells compared to the reference level, TA98: 0.83
S. typhimurium TA98; 1.0 mM, without S9
  Increase in the number of yellow wells compared to the reference level, TA98: 0.44
S. typhimurium TA98; 2.0 mM, + S9
  Increase in the number of yellow wells compared to the reference level, TA98: 1.50
S. typhimurium TA98; 2.0 mM, without S9
  Increase in the number of yellow wells compared to the reference level, TA98: 1.00

Reference: US20250263376A1, “(E)-N-CINNAMOYLAMINOALKANOLS WITH MELANOGENESIS INHIBITORY ACTIVITY” (Uniwersytet Jagiellonski, priority 2024, published 2025)
